Measurements reported in PubChem BioAssay AID1963977 (Molecular Pharmacology Branch, DTP, NCI, 2024).

Test system: 624824-186-R-J3-PDC multicell spheroids, viability
Assay: Anticancer human tumor 624824-186-R-J3-PDC patient-derived colon adenocarcinoma cell line growth inhibition [PI3K]
Conditions: for IC50: curve of first compound; for viability, T/C: stronger effect = lower value
Procedure, shortened: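 Agents were dosed from a top concentration near clinical Cmax (otherwise 10 microM) in half-log decrements, alone or combined with PI3K inhibitors. The spheroids contain tumor cells plus endothelial (HUVEC) and MSC stroma; viability is measured.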

[1] = second compound 0.00316 µM, first compound 0.0316 µM
[2] = second compound 0.00316 µM, first compound 0.1 µM
[3] = second compound 0.00316 µM, first compound 0.316 µM
[4] = second compound 0.00316 µM, first compound 1 µM
[5] = second compound 0.00316 µM, first compound 3.16 µM
[6] = second compound 0.00316 µM, first compound 10 µM
[7] = second compound 0.01 µM, first compound 0.0316 µM
[8] = second compound 0.01 µM, first compound 0.1 µM
[9] = second compound 0.01 µM, first compound 0.316 µM
[10] = second compound 0.01 µM, first compound 1 µM
[11] = second compound 0.01 µM, first compound 3.16 µM
[12] = second compound 0.01 µM, first compound 10 µM
[13] = second compound 0.0316 µM, first compound 0.0316 µM
[14] = second compound 0.0316 µM, first compound 0.1 µM
[15] = second compound 0.0316 µM, first compound 0.316 µM
[16] = second compound 0.0316 µM, first compound 1 µM
[17] = second compound 0.0316 µM, first compound 3.16 µM
[18] = second compound 0.0316 µM, first compound 10 µM
[19] = second compound 0.1 µM, first compound 0.0316 µM
[20] = second compound 0.1 µM, first compound 0.1 µM
[21] = second compound 0.1 µM, first compound 0.316 µM
[22] = second compound 0.1 µM, first compound 1 µM
[23] = second compound 0.1 µM, first compound 3.16 µM
[24] = second compound 0.1 µM, first compound 10 µM
[25] = second compound 0.316 µM, first compound 0.0316 µM
[26] = second compound 0.316 µM, first compound 0.1 µM
[27] = second compound 0.316 µM, first compound 0.316 µM
[28] = second compound 0.316 µM, first compound 1 µM
[29] = second compound 0.316 µM, first compound 3.16 µM
[30] = second compound 0.316 µM, first compound 10 µM
[31] = second compound 1 µM, first compound 0.0316 µM
[32] = second compound 1 µM, first compound 0.1 µM
[33] = second compound 1 µM, first compound 0.316 µM
[34] = second compound 1 µM, first compound 1 µM
[35] = second compound 1 µM, first compound 3.16 µM
[36] = second compound 1 µM, first compound 10 µM
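Also: spheroids exposed to agents for seven days before luminescence read.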
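For viability, T/C in this document: luminescent signal used as a stand-in for spheroid viability; percent viability relative to DMSO vehicle control wells taken as 100%.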

## Cn1ncc(Cl)c1-c1cc(C(=O)NC(CN)Cc2cccc(F)c2)sc1Cl (centres undefined) + CC(Nc1ccc2c(c1)OCCn1cc(N3C(=O)OCC3C(F)F)nc1-2)C(N)=O
Second compound 0.00316 µM
  IC50: > 10 µM
Second compound 0.01 µM
  IC50: > 10 µM
Second compound 0.0316 µM
  IC50: > 10 µM
Second compound 0.1 µM
  IC50: > 10 µM
Second compound 0.316 µM
  IC50: > 10 µM
Second compound 1 µM
  IC50: 3.12 µM
[1]
  viability, T/C: 111%
[2]
  viability, T/C: 105%
[3]
  viability, T/C: 103%
[4]
  viability, T/C: 74.1%
[5]
  viability, T/C: 55.4%
[6]
  viability, T/C: 80%
[7]
  viability, T/C: 103%
[8]
  viability, T/C: 99.3%
[9]
  viability, T/C: 92.9%
[10]
  viability, T/C: 70%
[11]
  viability, T/C: 52.4%
[12]
  viability, T/C: 84%
[13]
  viability, T/C: 104%
[14]
  viability, T/C: 99.4%
[15]
  viability, T/C: 90.2%
[16]
  viability, T/C: 66.7%
[17]
  viability, T/C: 49.5%
[18]
  viability, T/C: 83.1%
[19]
  viability, T/C: 103%
[20]
  viability, T/C: 97.3%
[21]
  viability, T/C: 91.4%
[22]
  viability, T/C: 69.2%
[23]
  viability, T/C: 51.4%
[24]
  viability, T/C: 79.2%
[25]
  viability, T/C: 100%
[26]
  viability, T/C: 93%
[27]
  viability, T/C: 88.5%
[28]
  viability, T/C: 64.1%
[29]
  viability, T/C: 42%
[30]
  viability, T/C: 62.4%
[31]
  viability, T/C: 90.1%
[32]
  viability, T/C: 90.6%
[33]
  viability, T/C: 76.7%
[34]
  viability, T/C: 63.7%
[35]
  viability, T/C: 44.3%
[36]
  viability, T/C: 50.9%

## CC(C)NCC(C(=O)N1CCN(c2ncnc3c2C(C)CC3O)CC1)c1ccc(Cl)cc1 (centres undefined) + CC(Nc1ccc2c(c1)OCCn1cc(N3C(=O)OCC3C(F)F)nc1-2)C(N)=O
Second compound 0.00316 µM
  IC50: 6.8 µM
Second compound 0.01 µM
  IC50: 7.52 µM
Second compound 0.0316 µM
  IC50: 5.35 µM
Second compound 0.1 µM
  IC50: 7.68 µM
Second compound 0.316 µM
  IC50: 4.24 µM
Second compound 1 µM
  IC50: 3.44 µM
[1]
  viability, T/C: 107%
[2]
  viability, T/C: 96.8%
[3]
  viability, T/C: 97.7%
[4]
  viability, T/C: 73.1%
[5]
  viability, T/C: 59.9%
[6]
  viability, T/C: 45.4%
[7]
  viability, T/C: 98.3%
[8]
  viability, T/C: 96.8%
[9]
  viability, T/C: 99.4%
[10]
  viability, T/C: 72%
[11]
  viability, T/C: 63.8%
[12]
  viability, T/C: 45.3%
[13]
  viability, T/C: 96.2%
[14]
  viability, T/C: 93.4%
[15]
  viability, T/C: 91.6%
[16]
  viability, T/C: 77.4%
[17]
  viability, T/C: 57.2%
[18]
  viability, T/C: 41.7%
[19]
  viability, T/C: 108%
[20]
  viability, T/C: 94.1%
[21]
  viability, T/C: 88.1%
[22]
  viability, T/C: 83.7%
[23]
  viability, T/C: 59.5%
[24]
  viability, T/C: 46.4%
[25]
  viability, T/C: 96.2%
[26]
  viability, T/C: 91.8%
[27]
  viability, T/C: 94.4%
[28]
  viability, T/C: 72.5%
[29]
  viability, T/C: 54.2%
[30]
  viability, T/C: 41.9%
[31]
  viability, T/C: 92%
[32]
  viability, T/C: 88.8%
[33]
  viability, T/C: 86.1%
[34]
  viability, T/C: 65%
[35]
  viability, T/C: 53.6%
[36]
  viability, T/C: 35.1%
